Patent US5281626A, “Benzenesulfonamide derivatives” (Eisai Co., Ltd., priority 1990, dated 1994)

Key:
[1] = test system: phospholipase A2 (PLA2) contained in the membrane fraction of rabbit heart; assay: Inhibitory activity against phospholipase A2 (PLA2) contained in the membrane fraction of rabbit heart; type: biochemical; conditions: CaCl2 added, 37° C., 30 minutes
Experimental: (§1) A. Inhibitory activity against phospholipase A2 (PLA2) contained in the membrane fraction of rabbit heart or the supernatant fraction thereof (method) An NZW male rabbit was anesthetized by the intravenous administration of pentobarbital sodium to take out its heart. This heart was washed with ice cooled physiological saline to recover a ventricle, followed by the addition of ice-cooled 0.25M sucrose/20 mM tris hydrochloride buffer (pH: 8.0) in an amount of 5 ml per g of the ventricle. The obtained mixture was mashed with a homogenizer in ice water for 30 minutes and centrifuged at 1,000 g for 10 min. The supernatant was further centrifuged at 105,000 g for 60 min. The centrifugation was conducted at 0° to 4° C. The obtained supernatant was used as such as the supernatant fraction for examination. The precipitate was suspended in the same buffer as that described above and used as the membrane fraction for examination. The protein concentrations of these fractions were each adjusted to 5 mg/ml as determined by Lowry method. […] The test tubes of the membrane fraction were kept at 37° C. for 30 minutes for incubation, while those of the supernatant fraction were kept at 37° C. for 5 minutes for incubation. Each incubation was stopped by the addition of 1 ml of Dole reagent. […] The amount of ^14 C was determined with a liquid scintillation counter. Mepacrine was selected as a comparative compound. (Results)

[2] = test system: phospholipase A2 (PLA2) contained in the supernatant fraction of rabbit heart; assay: Inhibitory activity against phospholipase A2 (PLA2) contained in the supernatant fraction of rabbit heart; type: biochemical; conditions: EGTA added, 37° C., 5 minutes
Experimental: as §1

PLA2 -inhibitory activity IC30, membrane fraction [1]	PLA2 -inhibitory activity IC30, supernatant fraction [2]	SMILES
0.12 µM	29 µM	CN(C(=O)/C=C/c1ccc([N+](=O)[O-])cc1)c1ccc(S(=O)(=O)NC2CCCCCC2)cc1 [Example 38, N-cycloheptyl-4-{N-methyl-N-[(E)-3-(4-nitrophenyl)-2-propenoyl]amino}benzenesulfonamide]
0.044 µM	> 100 µM	Cc1cccc(CCN2CCC(NS(=O)(=O)c3ccc(N(C)C(=O)/C=C/c4ccc(S(C)(=O)=O)cc4)cc3)CC2)n1 [Example 81, N-[1-(2-(6-methyl-2-pyridyl)ethyl]-4-piperidyl-4-{N-methyl-N-(E)-3-(4-methylsulfonylphenyl)-2-propenoyl]amino}benzenesulfonamide]
0.42 µM	29 µM	CN(C(=O)/C=C/c1ccc(-n2ccnc2)cc1)c1ccc(S(=O)(=O)N[C@@H]2C[C@H]3CC[C@@H]2C3)cc1 (relative stereo) [Example 31, (±)-N-(exo-2-norbornyl)-4-{N-methyl-N-[(E)-3-[4-(1-imidazolyl)phenyl]-2-propenoyl]amino}benzenesulfonamide]
20 µM	> 100 µM	NS(=O)(=O)c1ccc(NC(=O)/C=C/c2ccc(O)c(O)c2)cc1 [Example 77]
16 µM	–	CN(C(=O)/C=C/c1ccc(O)c(O)c1)c1ccc(S(N)(=O)=O)cc1 [Example 65, 4-{N-methyl-N-[(E)-3-(3,4-dihydroxyphenyl)-2-propenoyl]amino}benzenesulfonamide]
0.015 µM	61 µM	CN(C(=O)/C=C/c1ccc(S(C)(=O)=O)cc1)c1ccc(S(=O)(=O)NC2CCCCN(Cc3ccccc3)C2)cc1 (racemic) [Example 9, (±)-[1-benzyl-3-hexamethyleneimino]-4-{N-methyl N-[(E)-N-3-(4-methylsulfonylphenyl)-2-propenoyl]amino)benzenesulfonamide]
3.49 µM	62 µM	CN(C(=O)/C=C/c1ccc(O)c(F)c1)c1ccc(S(=O)(=O)NC2CCCCCC2)cc1 [Example 43]
1.5 µM	64 µM	CN(C(=O)/C=C/c1ccc(O)c(O)c1)c1ccc(S(=O)(=O)NC2CCCCC2)cc1 [Example 58, N-cyclohexyl-4-{N-methyl-N-[(E)-3-(3,4-dihydroxyphenyl)-2-propenoyl]amino}benzenesulfonamide]
2.1 µM	–	CN(C(=O)/C=C/c1ccc(O)c(F)c1)c1ccc(S(=O)(=O)NC2CCCCCCC2)cc1 [Example 87, N-cyclooctyl-4-{N-methyl-N-[(E)-3-(3-fluoro-4-hydroxyphenyl)-2-propenoyl]amino}benzenesulfonamide]
0.045 µM	92 µM	CN(C(=O)/C=C/c1ccc(S(C)(=O)=O)cc1)c1ccc(S(=O)(=O)N2CCCN(CC3CCCCC3)CC2)cc1 [Example 20, (E)-N-methyl-N-[4-(4-cyclohexylmethyl-1-homopiperazinyl)sulfonylphenyl]-3 (4 methylsulfonylphenyl)-2-propenamide]
0.03 µM	> 100 µM	COc1ccc(CCN2CCC(NS(=O)(=O)c3ccc(N(C)C(=O)/C=C/c4ccc(S(C)(=O)=O)cc4)cc3)CC2)cc1OC [Example 79]
2.4 µM	–	CN(C(=O)/C=C/c1ccc(OC(=O)CN)c(OC(=O)CN)c1)c1ccc(S(=O)(=O)NC2Cc3ccccc3C2)cc1 [Example 3, N-(2-indanyl)-4-{N-methyl-N-[(E)-3-[3,4-diglycyloxyphenyl)-2-propenoyl]amino}benzenesulfonamide]
0.45 µM	90 µM	CN(C(=O)/C=C/c1ccc(-n2ccnc2)cc1)c1ccc(S(=O)(=O)NC2CCCCCC2)cc1 [Example 29]
0.055 µM	> 100 µM	CN(C(=O)/C=C/c1ccc(S(C)(=O)=O)cc1)c1ccc(S(=O)(=O)N2CCCN(Cc3ccccc3)CC2)cc1 [Example 21, (E)-N-methyl-N-[4-(4-benzyl-1-homopiperazinyl)sulfonylphenyl]-3-(4-methylsulfonylphenyl)-2-propenamide]
41 µM	–	COc1ccc(/C(=C/C(=O)Nc2ccc(S(N)(=O)=O)cc2)c2cccnc2)cc1OC [Example 72]
0.62 µM	46 µM	CN(C(=O)/C=C/c1ccc(O)cc1)c1ccc(S(=O)(=O)NC2CCCCCC2)cc1 [Example 86, N-cycloheptyl-4-{N-methyl-N-[(E)-3-(4-hydroxyphenyl)-2-propenoyl]amino}benzenesulfonamide]
> 100 µM	> 100 µM	CCN(CC)CCCC(C)Nc1c2ccc(Cl)cc2nc2ccc(OC)cc12 (stereo not shown) [mepacrine, reference compound]
1.8 µM	56 µM	CN(C(=O)/C=C/c1ccc(O)c(O)c1)c1ccc(S(=O)(=O)NC2CCCCCC2)cc1 [Example 49, N-cycloheptyl-4-{N-methyl-N-[(E)-3-(3,4-dihydroxyphenyl)-2-propenoyl]amino}benzenesulfonamide]
0.007 µM	49 µM	CN(C(=O)/C=C/c1ccc(S(C)(=O)=O)cc1)c1ccc(S(=O)(=O)NC2CCN(CCc3ccccc3)CC2)cc1 [Example 5, N-[1-(2-phenylethyl)-4-piperidyl]-4-{N-methyl-N-[(E)-3-(4-methylsulfonylphenyl) -2-propenoyl]amino}benzenesulfonamide]
5.1 µM	39 µM	CN(C(=O)/C=C/C=C/c1cc(Br)c(O)c(Br)c1)c1ccc(S(=O)(=O)NC2CCCCCC2)cc1 [Example 44, N-cycloheptyl-4-{N-methyl-N-[(2E, 4E)-5-(3,5-dibromo-4-hydroxyphenyl) -2,4-pentadienoyl]amino}benzenesulfonamide]
0.98 µM	46 µM	CN(C(=O)/C=C/c1ccc(O)cc1)c1ccc(S(=O)(=O)NC2Cc3ccccc3C2)cc1 [Example 41, N-(2-indanyl)-4-{N-methyl-N-[(E)-3-(4-dihydroxyphenyl)-2-propenoyl]amino}benzenesulfonamide]
1.7 µM	32 µM	CN(C(=O)/C=C/C=C/c1ccc(O)c(O)c1)c1ccc(S(=O)(=O)NC2CCc3ccccc3C2)cc1 (stereo not shown) [Example 48]
0.18 µM	> 100 µM	CN(C(=O)/C=C/c1ccc(S(C)(=O)=O)cc1)c1ccc(S(=O)(=O)NCCc2ccccn2)cc1 [Example 18, N-[2-(2-pyridyl)ethyl]-4-{N-methyl-N-[(E)-3-(4-methylsulfonylphenyl) -2-propenoyl]amino}benzenesulfonamide]
0.66 µM	> 100 µM	CN(C(=O)/C=C/c1ccc(-n2ccnc2)cc1)c1ccc(S(=O)(=O)NC2CCCCCCC2)cc1 [Example 30, N-cyclooctyl-4-{N-methyl-N-[(E)-3-[4-(1-imidazolyl)phenyl]-2-propenoyl]amino}benzenesulfonamide]
0.24 µM	59 µM	CN(C(=O)/C=C/c1ccc(C#N)cc1)c1ccc(S(=O)(=O)NC2CCN(Cc3ccccc3)CC2)cc1 [Example 26, N-(1-benzyl-4-piperidyl)-4-{N-methyl-N-[(E)-3-(4-cyanophenyl)-2-propenoyl]amino}benzenesulfonamide]
1.05 µM	38 µM	CN(C(=O)/C=C/C=C/c1ccc(O)c(O)c1)c1ccc(S(=O)(=O)NC2CCCCCC2)cc1 [Example 50, N-cycloheptyl-4-{N-methyl N-[(2E, 4E)-5-(3,4-dihydroxyphenyl)-2,4-pentadienoyl]amino}benzenesulfonamide]
0.050 µM	> 100 µM	CN(C(=O)/C=C/c1ccc(S(C)(=O)=O)cc1)c1ccc(S(=O)(=O)N2CCN(CCc3ccccc3)CC2)cc1 [Example 22, (E)-N methyl-N-{4-[4-(2-phenylethyl)-piperazinyl]sulfonylphenyl}-3-(4-methylsulfonylphenyl)-2-propenamide]
0.016 µM	> 30 µM	CN(C(=O)/C=C/c1ccc(S(C)(=O)=O)cc1)c1ccc(S(=O)(=O)NC2CCCCCC2)cc1 [Example 14, N-pycloheptyl-4-(N-methyl-N-[(E)-3-(4-methylsulfonylphenyl)-2-propenoyl]amino}benzenesulfonamide]
